Results published in ChEMBL document CHEMBL5230089, “Small-Molecule Fms-like Tyrosine Kinase 3 Inhibitors: An Attractive and Efficient Method for the Treatment of Acute Myeloid Leukemia” (J Med Chem, 2020).
Blank lines part the entries; values can stand above or below the molecule they belong to.

Assays:
MV4-11 [1] = experiment: Antiproliferative activity against human MV4-11 cells assessed as cell growth inhibition measured after 72 hrs by cell titer-Blue assay; format: functional, cell-based; details: MV4-11, 72 h
MOLM-14 [2] = experiment: Antiproliferative activity against human MOLM-14 cells assessed as cell growth inhibition measured after 72 hrs by cell titer-Blue assay; format: functional, cell-based; details: MOLM-14, 72 h
[3] = molecular target: T1, Receptor-type tyrosine-protein kinase FLT3 (Homo sapiens, UniProt P36888, ITD); experiment: Inhibition of FLT3-ITD mutant phosphorylation in human MOLM-14 cell incubated for 2 hrs; format: cell-based
[4] = molecular target: Receptor-type tyrosine-protein kinase FLT3 (Homo sapiens, UniProt P36888, D835Y); experiment: Inhibition of FLT3-D835Y mutant phosphorylation in human MOLM-14 cell incubated for 2 hrs; format: cell-based
[5] = molecular target: T1, Receptor-type tyrosine-protein kinase FLT3
MV4-11 [6] = experiment: cells; details: Homo sapiens, MV4-11, 48 h
Description: Antiproliferative activity against human MV4-11 cells assessed as reduction in cell viability after 48 hrs by Alamar Blue assay

MOLM-14 [7] = experiment: cells; details: Homo sapiens, MOLM-14, 72 h
[8] = molecular target: Receptor-type tyrosine-protein kinase FLT3 (Homo sapiens, UniProt P36888); experiment: Binding affinity to human FLT3 assessed as dissociation constant
MV4-11 [9] = experiment: cells; details: Homo sapiens, MV4-11, 72 h
Description: Cytotoxicity against human MV4-11 cells assessed as cell viability incubated for 72 hrs by Cell titer-blue assay

[10] = molecular target: T2, Receptor-type tyrosine-protein kinase FLT3 (Homo sapiens, UniProt P36888); experiment: Inhibition of FLT3 (unknown origin)
T2 sequence (P36888 whole entry): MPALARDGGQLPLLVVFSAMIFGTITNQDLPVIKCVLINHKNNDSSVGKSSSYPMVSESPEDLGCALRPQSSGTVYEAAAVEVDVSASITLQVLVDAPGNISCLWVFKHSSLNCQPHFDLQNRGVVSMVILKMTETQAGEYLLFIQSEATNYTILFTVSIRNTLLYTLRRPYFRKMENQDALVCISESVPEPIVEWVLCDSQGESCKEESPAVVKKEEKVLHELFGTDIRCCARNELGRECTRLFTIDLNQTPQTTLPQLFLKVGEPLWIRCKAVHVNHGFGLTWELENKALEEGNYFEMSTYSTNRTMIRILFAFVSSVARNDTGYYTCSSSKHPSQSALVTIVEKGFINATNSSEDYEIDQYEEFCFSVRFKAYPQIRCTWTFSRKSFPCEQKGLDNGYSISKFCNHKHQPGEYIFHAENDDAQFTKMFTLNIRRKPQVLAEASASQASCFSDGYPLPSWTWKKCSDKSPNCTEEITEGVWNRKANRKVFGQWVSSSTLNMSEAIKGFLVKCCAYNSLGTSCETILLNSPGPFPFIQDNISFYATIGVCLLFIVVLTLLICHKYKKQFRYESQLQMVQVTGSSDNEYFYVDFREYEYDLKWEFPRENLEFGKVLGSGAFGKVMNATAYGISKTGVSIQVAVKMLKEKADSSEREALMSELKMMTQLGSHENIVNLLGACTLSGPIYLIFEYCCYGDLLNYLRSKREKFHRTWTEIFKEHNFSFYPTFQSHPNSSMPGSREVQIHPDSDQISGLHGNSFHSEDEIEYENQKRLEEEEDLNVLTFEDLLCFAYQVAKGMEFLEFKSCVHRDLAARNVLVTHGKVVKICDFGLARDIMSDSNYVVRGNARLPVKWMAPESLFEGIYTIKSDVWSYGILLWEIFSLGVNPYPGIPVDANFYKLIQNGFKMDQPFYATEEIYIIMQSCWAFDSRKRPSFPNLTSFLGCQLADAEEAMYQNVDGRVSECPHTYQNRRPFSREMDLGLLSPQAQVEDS

RS4-11 = experiment: Growth inhibition human RS4-11 cell assessed as reduction in cell viability at 50 uM measured after 72 hrs by CCK8 assay; format: functional
MV4-11 [11] = experiment: Growth inhibition of human MV4-11 cells assessed as reduction in cell viability at 50 uM measured after 72 hrs by CCK8 assay; format: functional
BaF3 [12] = experiment: Antiproliferative activity against mouse BaF3 FLT3-D835 cells assessed as reduction in cell viability measured after 72 hrs by MTS assay; format: functional, cell-based; details: BaF3, 72 h
cells = details: Homo sapiens, TF cell, 72 h
[13] = system: Receptor-type tyrosine-protein kinase FLT3 (Homo sapiens), P36888 [UNDEFINED MUTATION]
MOLM-14 [14] = experiment: Cytotoxicity against human MOLM-14 cells assessed as reduction in cell viability incubated for 72 hrs; format: functional, cell-based; details: MOLM-14, 72 h
MOLM-13 [15] = experiment: Cytotoxicity against human MOLM-13 cells assessed as cell viability incubated for 72 hrs by Cell titer-blue assay; format: functional, cell-based; details: MOLM-13, 72 h
BaF3 [16] = experiment: cells; details: Mus musculus, BaF3, 72 h
MOLM-13 [17] = experiment: cells; details: Homo sapiens, MOLM-13, 72 h
MOLM-13 [18] = experiment: cells; details: Homo sapiens, MOLM-13, 72 h; remark: listed apart in the source
Description: Cytotoxicity against human MOLM-13 cells assessed as reduction in cell viability incubated for 72 hrs

MV4-11 [19] = experiment: Growth inhibition of human MV4-11 cells incubated for 72 hrs by CCK-8 assay; format: functional
HL-60 = experiment: Growth inhibition of human HL-60 cells incubated for 4 days by WST assay; format: functional; details: HL-60, 96 h, time 4 day
MOLM-13 [20] = experiment: Growth inhibition of human MOLM-13 cells incubated for 72 hrs by CCK-8 assay; format: functional
MOLM-14 [21] = experiment: Growth inhibition of human MOLM-14 cells incubated for 72 hrs by CCK-8 assay; format: functional
BaF3 [22] = experiment: cells; details: Mus musculus, BaF3, 72 h; remark: listed apart in the source
BaF3 [23] = experiment: cells; details: Mus musculus, BaF3, 72 h; remark: listed apart in the source
MV4-11 [24] = experiment: Cytotoxicity activity against human MV4-11 cells assessed as reduction in cell viability measured after 48 hrs; format: functional, cell-based; details: MV4-11, 48 h
MOLM-13 [25] = experiment: Cytotoxicity activity against human MOLM-13 cells assessed as reduction in cell viability measured after 48 hrs; format: functional, cell-based; details: MOLM-13, 48 h
MV4-11 [26] = experiment: Antiproliferative activity against human MV4-11 cells assessed as cell growth inhibition measured after 48 hrs by cell titer glo assay; format: functional, cell-based; details: MV4-11, 48 h

Structure (SMILES): Cc1ncc(C(=O)Nc2ccc(CN3CCN(C)CC3)c(C(F)(F)F)c2)cc1C#Cc1c(N)ncc2ccc(F)cc12
IC50 (MV4-11 [1]): 0.5 nM | IC50 (MOLM-14 [2]): 0.5 nM | IC50 [3]: 0.5 nM | IC50 [4]: 16.6 nM

Structure (SMILES): O=C(c1ccncc1)N1CCc2nc(-c3cc4cc(F)ccc4[nH]c3=O)[nH]c2C1
IC50 [10]: 2.7 nM | GI50 (RS4-11): 6300 nM | GI50 (MV4-11 [11]): 110 nM

Structure (SMILES): CCc1nc(C(N)=O)c(Nc2ccc(N3CCC(N4CCN(C)CC4)CC3)c(OC)c2)nc1NC1CCOCC1 [GILTERITINIB]
IC50 (BaF3 [12]): 0.7 nM | IC50 (MOLM-14 [7]): 1.8 nM | IC50 (cells): 1.4 nM

Structure (SMILES): CNCCOc1ccc(-c2sc3nc(-c4cccs4)nc(NN4C(=O)C=C(C)C4=O)c3c2C)cc1
GI50 (MV4-11 [19]): 540 nM | GI50 (HL-60): 250 nM

Structure (SMILES): CN1CCC(Nc2nc(Nc3ccc(Oc4ccccc4)cc3)c3c(=O)[nH]cc(Br)c3n2)CC1 [DENFIVONTINIB]
IC50 (MV4-11 [6]): 3.5 nM | IC50 (MOLM-14 [7]): 7.5 nM | IC50 (BaF3 [22]): 21.4 nM | IC50 (BaF3 [23]): 38.1 nM

Structure (SMILES): CC(=O)OC[C@H]1O[C@@H](N2N=C(C(F)(F)F)/C(=N\Nc3cccc(C(F)(F)F)c3)C2=O)[C@H](OC(C)=O)[C@@H](OC(C)=O)[C@@H]1OC(C)=O
IC50 (MV4-11 [24]): 4700 nM | IC50 (MOLM-13 [25]): 4040 nM

Second part, led by results:

IC50 [5]: 6.5 nM | IC50 (MV4-11 [6]): 0.49 nM | IC50 (MOLM-14 [7]): 0.72 nM
Structure (SMILES): Cc1ccc(C(=O)Nc2ccc(CN3CCN(C)CC3)c(C(F)(F)F)c2)cc1C#Cc1c(N)ncc2ccc(Cl)cc12

Kd [8]: 3.6 nM | EC50 (MV4-11 [9]): 25 nM
Structure (SMILES): CC(C)Nc1ccnc(Nc2cccc(-c3cccnc3)c2)n1

IC5 [13]: 32 nM | IC50 (MV4-11 [6]): 2200 nM
Structure (SMILES): Cc1cc2ncc(-c3ccccc3)nc2cc1C [AG1295]

IC50 [5]: 71 nM
Structure (SMILES): Cc1cc2ncc(-c3ccc(NC(=O)Nc4cc(C(C)(C)C)on4)cc3)nc2cc1C

IC50 (BaF3 [16]): 1.3 nM | IC50 (MV4-11 [6]): 1.3 nM | IC50 (MOLM-13 [17]): 2 nM | IC50 (MOLM-14 [7]): 2 nM | IC50 (MOLM-13 [18]): 4.9 nM | IC50 (MV4-11 [9]): 0.92 nM
Structure (SMILES): CC1(COc2ccc3c(c2)ncn3-c2ccc3cccc(N4CCC(N)CC4)c3n2)COC1 [CRENOLANIB]
IC50 (MOLM-14 [14]): 2 nM | IC50 (MOLM-13 [15]): 2.9 nM

GI50 (MV4-11 [19]): 22 nM | GI50 (MOLM-13 [20]): 21 nM | GI50 (MOLM-14 [21]): 42 nM
Structure (SMILES): CN(C)CC(=O)N1CCC[C@@H](n2nc(-c3ccc(Oc4ccccc4)cc3)c3c(N)ncnc32)C1

IC50 [5]: 0.41 nM | IC50 (MV4-11 [26]): 37 nM
Structure (SMILES): COc1cc(Nc2nc3cccc(-c4cccc(C(N)=O)c4)c3o2)ccc1N1CCNCC1
